pIC50: −log10 of the molar value.
Columns and labels:
[1] = Photophysical properties (fluorescence and singlet oxygen quantum yield, lifetime); assay type: physicochemical; conditions: in ethanol
Protocol: System Inc, Phoenixville, PA, USA). The excitation beam is separated by a SPEX dual […]
network monochromator (1200 lines / mm blazed at 330 nm). The fluorescence was […]
measured by the UV-Visible detector via the SPEX dual network emission […]
monochromator (1200 lines / mm blazed at 500 nm). Singlet oxygen production was […]
measured with an infrared detector InGaAs (800 - 1550 nm) via the dual network […]
emission monochromator SPEX (600 lines / mm blazed at 1 µm).
All spectra were measured using 4-sided quartz cells. The absorption values of the […]
references and samples at the excitation wavelength were adjusted to 0.2. All emission […]
spectra were normalized to the same absorbance for the purpose of comparison.
[Ru(bpy)3]2+ in acetonitrile was chosen as standard for both fluorescence and singlet […]
oxygen quantum yield determination. Fluorescence quantum yield of [ Ru(bpy)3]2+ i n […]
acetonitrile is evaluated at 0.077.[5] Singlet oxygen quantum yield of [ Ru(bpy)3]2+ i n […]
acetonitrile is evaluat ed at 0.77.[6]
Time-resolved experiments were performed using for excitation: a pulsed laser diode […]
emitting at 407 nm (LDH-P-C-400M, FWHM < 70 ps, 1 MHz) coupled with a driver […]
PDL 800- D (both PicoQuant GmbH, BERLIN, Germany) and for detection: an […]
avalanch e photodiode SPCM-AQR-15 (EG & G, VAUDREUIL, Can ada) coupled with […]
a 650 nm long- wav e p ass filter as det ection system. The acquisition was p erformed by […]
a PicoHarp 300 module with a 4 channels router PHR-800 (both PicoQuant GmbH, […]
BERLIN, Germany ). Th e fluores cence decays were recorded using the single photon […]
counting method. Data were collected up to 1000 counts accumulated in the maximum […]
channel and analyzed using Time Correlated Single Photon Counting (TCSPC) […]
software Fluofit (PicoQuant GmbH, BERLIN, Germany) based on iterative reconvolution using a Levensberg- M arquandt alg oritm, enabling the obtention of multi-exponential profiles (m ainly one or two exponenti als in our cases ). […]

[2] = test system: CT26‐luc cells; experiment: Annexin V-FITC/propidium iodide (AV/PI) cell viability assay by flow cytometry; assay type: cell-based, mouse; conditions: 740 nm LED light (60 min, 12.6 J cm^−2)
Protocol: Following the gold standard assessment method, the Annexin V‐FITC/propidium iodide (AV/PI) dual staining assay was conducted to screen the suitable concentrations of each drug (Figure S25). In addition, to better monitor tumor growth in vivo, luciferase‐labelled tumor cells (CT26‐luc) were used for in vivo experiments by bioluminescence imaging. […] As the concentration of each drug was increased, the proportion of live cells decreased, while the percentage of dying cells (Q3, Annexin V^+/PI^−) and dead cells (Q2, Annexin V^+/PI^+ and Q1, Annexin V^−/PI^+) increased. The concentrations at which approximately 5% of the cells remained alive (IC95) were 600 µM for Cisplatin in the dark, 1.8 µM for Os2, and 6.5 µM for Ce6 upon 740 nm LED light irradiation (60 min, 12.6 J cm^−2). These concentrations were selected for the subsequent in vivo vaccination studies. […]
incubated for 24 h. Cells were then treat ed with the determined IC50 of complexes and irradiated or kept in the dark. Supernatants were collected 12 h post-t reatm ent, and the extracellular ATP content was measured with Adenosine 5′ -triphosphate (ATP) Bioluminescent Assay Kit (Sigma-Aldrich) according tomanufacturer ’s ins truction. […]
556419) and PI (BD Biosciences, Catalog no.51- 66211E). CT26- luc cells were analyzed by flow cytometry (Beckm an Coulter Life Sciences, CytoFLEX LX Flow Cytometer). […]

[3] = test system: human fibroblast cells (MRC-5); experiment: Resazurin cell viability assay, dark toxicity; assay type: cell-based; conditions: MRC5, MRC-5, dark
Protocol: (§1) (100 U ml−1), streptomycin (100 U ml−1), and 1% L-glutamine. The murine fibrosarcom a (MCA205) cells were cultured in RPMI 1640 medium with 10% fetal bovine serum (FBS), penicillin (100 U ml−1), streptomycin (100 U ml−1), and 1% L-glutamine. All cells were incubated at 37 °C in a humidified atmosphere with 5 % CO2.
(§2) Normoxia. The in vitro viability of cells exposed to the complexes was determined using a resazurin assay. C ells were seeded in 96-well plates at densities of 4,000 cells/well for CT26, MC A205 and U-87 MG cells, and 8,000 cells/well for MRC-5 and NIH/3T3 cells. A fter 24 h of growth at 37 °C wit h 5% CO2, the medium was replaced with fresh medium containing various concentrations of the compounds . Following a 4- h incubation in the dark, the medium was refres hed , and the plates were exposed to irradiation usinga LUM OS -BIO photoreactor (At las Photonics).N on- ir rad iated plates were similarly refr eshed with medium and kept in the dark for the same duration. After a 40- h r ecov ery period, a f reshly pr epar ed resazurin solution (0.2 mg/mL) was added to each well, and the plates were left in the dark for 4 h before analysis on a B i o Te k Cytation 5 Cell Imaging Multimode Reader (Agil ent Technologies).
(§3) Hypoxia.Hypoxia cells were from well -grown normoxia cells and cultured for at least two weeks before use. […]

[4] = test system: mouse fibroblast cells (NIH/3T3); experiment: Resazurin cell viability assay, dark toxicity; assay type: cell-based; conditions: NIH3T3, NIH/3T3, dark
Protocol: as §1, §2, §3

For `C=Cc1c(C)c2cc3nc(c(CC(=O)O)c4[nH]c(cc5nc(cc1[nH]2)C(C)=C5CC)c(C)c4C(=O)O)[C@@H](CCC(=O)O)[C@@H]3C` [Ce6, chlorin e6], the Fluorescence lifetime [1] was 4.7 ns, the Fluorescence quantum yield [1] was 0.20 and the “Singlet oxygen quantum yield” value [1] was 0.65. The “Concentration at which approximately 5% of the cells remained alive (IC95)” value [2] was 6.5 µM, the pIC50 [3] was under 4.00 and the pIC50 [4] was under 4.00.
